The values below are quoted from earlier work in publication PMC7961996, “Small Immunomodulatory Molecules as Potential Therapeutics in Experimental Murine Models of Acute Lung Injury (ALI)/Acute Respiratory Distress Syndrome (ARDS)” (International Journal of Molecular Sciences, 2021).

The test system of data set [1] is murine macrophages and human peripheral blood monocytes-hPBMC. Also noted: method as in PMID 22654663. The following applies: in vitro; cited from earlier work.
For a further data set, the system named is endotoxemia. Also noted: method as in PMID 22654663. The following applies: in vivo; cited from earlier work.

With chitohexaose, the “LPS-induced inflammatory mediators such as TNF-α and IL-6” value in data set [1] is “blocks lipopolysaccharide (LPS)-induced inflammatory mediators”. Besides, in the data set with endotoxemia, the endotoxemia result is “reduces endotoxemia”.
